Values of other authors as cited in PubChem BioAssay AID1259409 (Chemical Carcinogenesis Research Information System (CCRIS), 2018).
Several values for one entry are separate records, joined by “and”; a condition that tells them apart may be missing. Equal values may be shown once.

Tested on: rodent chemically induced tumor inhibition, incidence and multiplicity
Test: CCRIS tumor inhibitor studies
Details: Route [Inhibitor]: ORAL, Species: RAT

Compound: CC1=C(/C=C/C(C)=C/C=C/C(C)=C/C(=O)Nc2ccc(O)cc2)C(C)(C)CCC1
- tumour outcome (control, treated, inhibition, significance) (Carcinogen: N-METHYL-N'-NITROSOUREA, 684-93-5, Dose [Inhibitor]: 0, 782 MG/KG IN DIET FOR DURATION OF STUDY BEGINNING 60 D PRIOR TO CARCINOGEN DOSE (STUDY DURATION: 240 D), Strain/Sex: SPRAGUE-DAWLEY/FEMALE, Target Tissue: Type of Lesion: MAMMARY GLAND: TUMOR, Dose [Carcinogen]: 50 MG/KG BW ONCE, Promoter: NONE USED): 80%, 28%, 65%, p<0.oo5 and 68%, 42%, 38%, p<0.005
- tumour outcome (control, treated, inhibition, significance) (Carcinogen: N-METHYL-N-NITROSOUREA [684-93-5], Dose [Inhibitor]: 2 MMOL/KG IN DIET FOR 6 WK BEGINNING 4 WK POST LAST CARCINOGEN DOSE (STUDY DURATION: 11 WK), Strain/Sex: SPRAGUE-DAWLEY/FEMALE, Target Tissue: Type of Lesion: MAMMARY GLAND: CARCINOMA, Dose [Carcinogen]: 50 MG/KG BW IP 1X/WK FOR 2 WK (STUDY DURATION: 11 WK), Promoter: NONE): 95.4%, 87.5%, 8.3%
- tumour outcome (control, treated, inhibition, significance) (Carcinogen: N-METHYL-N-NITROSOUREA [684-93-5], Dose [Inhibitor]: 2 MMOL/KG IN DIET FOR 10 WK BEGINNING 2 D POST LAST CARCINOGEN DOSE (STUDY DURATION: 11 WK), Strain/Sex: SPRAGUE-DAWLEY/FEMALE, Target Tissue: Type of Lesion: MAMMARY GLAND: CARCINOMA, Dose [Carcinogen]: 50 MG/KG BW IP 1X/WK FOR 2 WK (STUDY DURATION: 11 WK), Promoter: NONE): 95.4%, 45.0%, 53%, p<0.05
- tumour outcome (control, treated, inhibition, significance) (Carcinogen: N-METHYL-N-NITROSOUREA [684-93-5], Dose [Inhibitor]: 196 MG/KG DIET BEGINNING 7 D PRIOR TO CARCINOGEN DOSE (STUDY DURATION: 187 D), Strain/Sex: SPRAGUE-DAWLEY/FEMALE, Target Tissue: Type of Lesion: MAMMARY GLAND: ADENOCARCINOMA, Dose [Carcinogen]: 50 MG/KG BW ONCE AT 100 D OF AGE): 23/40 (57%), 17/40 (43%), 24.6%,p<0.01
- tumour outcome (control, treated, inhibition, significance) (Carcinogen: N-METHYL-N-NITROSOUREA [684-93-5], Dose [Inhibitor]: 586 MG/KG DIET BEGINNING 3 D POST-CARCINOGEN DOSE (STUDY DURATION: 150 D), Strain/Sex: SPRAGUE-DAWLEY/FEMALE, Target Tissue: Type of Lesion: MAMMARY GLAND: ADENOCARCINOMA, Dose [Carcinogen]: 50 MG/KG BW ONCE AT 50 D OF AGE): 25/25 (100%), 24/25 (96%), 4%, not significant
- tumour outcome (control, treated, inhibition, significance) (Carcinogen: N-METHYL-N-NITROSOUREA, 684-93-5, Dose [Inhibitor]: 0, 1 MMOL/KG IN DIET FOR 7 MO BEGINNING 7 MO POST CARCINOGEN DOSE (STUDY DURATION: 14 MO), Strain/Sex: LOBUND WISTAR/MALE, Target Tissue: Type of Lesion: PROSTATE: ADENOCARCINOMA, Dose [Carcinogen]: 30 MG/KG BW ONCE, Promoter: TESTOSTERONE PROPIONATE, 57-85-2): 16/18 (89%), 4/19 (21%), 76%, p<0.001
- tumour outcome (control, treated, inhibition, significance) (Carcinogen: N-METHYL-N-NITROSOUREA, 684-93-5, Dose [Inhibitor]: 0, 328 MG/KG OF DIET FOR DURATION OF STUDY BEGINNING 1 WK PRIOR TO CARCINOGEN TREATMENT (STUDY DURATION: 117 D), Strain/Sex: SPRAGUE-DAWLEY/FEMALE, Target Tissue: Type of Lesion: MAMMARY GLAND: ADENOCARCINOMA, Dose [Carcinogen]: 50 MG/KG BW ONCE, Promoter: NONE USED): 100%, 84%, 16%, not significant
- tumour outcome (control, treated, inhibition, significance) (Carcinogen: N-METHYL-N-NITROSOUREA, 684-93-5, Dose [Inhibitor]: 0, 391 MG/KG DIET BEGINNING AFTER THE SURGICAL REMOVAL OF THE FIRST PALPABLE TUMOR (STUDY DURATION: LIFETIME), Strain/Sex: SPRAGUE-DAWLEY/FEMALE, Target Tissue: Type of Lesion: MAMMARY GLAND: TUMOR, Dose [Carcinogen]: 35 MG/KG ONCE AT 50 DAYS OF AGE, Promoter: NONE USED): 93%, 95%, -2%, not calculated
- tumour outcome (control, treated, inhibition, significance) (Carcinogen: N-METHYL-N-NITROSOUREA, 684-93-5, Dose [Inhibitor]: 0, 782 MG/KG DIET BEGINNING AFTER THE SURGICAL REMOVAL OF THE FIRST PALPABLE TUMOR (STUDY DURATION: LIFETIME), Strain/Sex: SPRAGUE-DAWLEY/FEMALE, Target Tissue: Type of Lesion: MAMMARY GLAND: TUMOR, Dose [Carcinogen]: 35 MG/KG ONCE AT 50 DAYS OF AGE, Promoter: NONE USED): 93%, 89%, 4%, not calculated
- tumour outcome (control, treated, inhibition, significance) (Carcinogen: N-METHYL-N-NITROSOUREA, 684-93-5, Dose [Inhibitor]: 0, 782 MG/KG DIET REDUCED TO 391 MG/KG DIET 2 WK POST CARCINOGEN DOSE (STUDY DURATION: 450 D), Strain/Sex: WISTAR-UNILEVER/MALE, Target Tissue: Type of Lesion: PROSTATE/SEMINAL VESICLE: ADENOCARCINOMA, Dose [Carcinogen]: 50 MG/KG BW ONCE, Promoter: TESTOSTERONE PROPIONATE, 57-85-2): 67%, 62%, 7%, not significant
- tumour outcome (control, treated, inhibition, significance) (Carcinogen: N-METHYL-N-NITROSOUREA, 684-93-5, Dose [Inhibitor]: 0, 782 MG/KG OF CASEIN-BASED AIN-76A DIET FOR DURATION OF STUDY BEGINNING 7 D POST CARCINOGEN DOSE (STUDY DURATION: 25 W, Strain/Sex: F344/FEMALE, Target Tissue: Type of Lesion: MAMMARY GLAND: TUMOR, Dose [Carcinogen]: 45 MG/KG BW ONCE AT 5O D OF AGE, Promoter: NONE USED): 18/25 (72%), 20/25 (80%), -11%, not significant
- tumour outcome (control, treated, inhibition, significance) (Carcinogen: N-METHYL-N-NITROSOUREA, 684-93-5, Dose [Inhibitor]: 0, 782 MG/KG OF DIET FOR DURATION OF STUDY BEGINNING 1 WK PRIOR TO CARCINOGEN TREATMENT (STUDY DURATION: 117 D), Strain/Sex: SPRAGUE-DAWLEY/FEMALE, Target Tissue: Type of Lesion: MAMMARY GLAND: ADENOCARCINOMA, Dose [Carcinogen]: 50 MG/KG BW ONCE, Promoter: NONE USED): 100%, 42%, 58%, not calculated
- tumour outcome (control, treated, inhibition, significance) (Carcinogen: N-METHYL-N-NITROSOUREA, 684-93-5, Dose [Inhibitor]: 0, 782 MG/KG OF GRAIN-BASED NIH-07 DIET FOR DURATION OF STUDY BEGINNING 7 D PRIOR TO CARCINOGEN DOSE (STUDY DURATION: 26, Strain/Sex: F344/FEMALE, Target Tissue: Type of Lesion: MAMMARY GLAND: TUMOR, Dose [Carcinogen]: 45 MG/KG BW ONCE AT 50 D OF AGE, Promoter: NONE USED): 13/25 (52%), 7/25 (28%), 46%, not significant
